{"source": "the NIST ThermoML archive (doi:10.1021/acs.jced.8b00387)", "conditions": "for viscosity / mass density / speed of sound: 102 kPa, Liquid; for viscosity: Concentric cylinders viscometry; for mass density: Vibrating tube method; for speed of sound: Frequency=3 MHz, Single path-length method; for surface tension liquid-gas: Pendant drop shape", "note": "Values joined by “and” are separate entries in the source; they are usually repeats but may differ in a detail not shown here. Identical values can stand only once. Numbers after ± are expanded uncertainties."}
{"smiles": "CC(CC(C)(C)C)CC(C)(C)C", "note": "[2,2,4,6,6-pentamethylheptane]", "values": [{"measurement": "viscosity", "setting": "253.15 K", "result": "3.08 ± 0.06", "unit": "mPa·s"}, {"measurement": "mass density", "setting": "253.15 K", "result": "775.8 ± 2", "unit": "kg/m3"}, {"measurement": "speed of sound", "setting": "288.15 K", "result": "1223.7 ± 1.3", "unit": "m/s"}, {"measurement": "mass density", "setting": "288.15 K", "result": "748.8 ± 0.7", "unit": "kg/m3"}, {"measurement": "viscosity", "setting": "293.15 K", "result": "1.31 ± 0.02", "unit": "mPa·s"}, {"measurement": "speed of sound", "setting": "293.15 K", "result": "1203.8 ± 1.3", "unit": "m/s"}, {"measurement": "mass density", "setting": "293.15 K", "result": "745.2 ± 0.7", "unit": "kg/m3"}, {"measurement": "surface tension liquid-gas", "setting": "294 K", "result": "22.1 ± 0.4", "unit": "mN/m"}, {"measurement": "viscosity", "setting": "303.15 K", "result": "1.13 ± 0.02", "unit": "mPa·s"}, {"measurement": "speed of sound", "setting": "303.15 K", "result": "1164.7 ± 1.3", "unit": "m/s"}, {"measurement": "mass density", "setting": "303.15 K", "result": "737.9 ± 0.7", "unit": "kg/m3"}, {"measurement": "viscosity", "setting": "313.15 K", "result": "0.955 ± 0.021", "unit": "mPa·s"}, {"measurement": "speed of sound", "setting": "313.15 K", "result": "1126.5 ± 1.3", "unit": "m/s"}, {"measurement": "mass density", "setting": "313.15 K", "result": "730.6 ± 0.7", "unit": "kg/m3"}, {"measurement": "viscosity", "setting": "323.15 K", "result": "0.849 ± 0.021", "unit": "mPa·s"}, {"measurement": "speed of sound", "setting": "323.15 K", "result": "1089.1 ± 1.3", "unit": "m/s"}, {"measurement": "mass density", "setting": "323.15 K", "result": "723.2 ± 0.7", "unit": "kg/m3"}, {"measurement": "viscosity", "setting": "333.15 K", "result": "0.744 ± 0.021", "unit": "mPa·s"}, {"measurement": "speed of sound", "setting": "333.15 K", "result": "1052.7 ± 1.3", "unit": "m/s"}, {"measurement": "mass density", "setting": "333.15 K", "result": "715.8 ± 0.7", "unit": "kg/m3"}]}
{"smiles": "CCCCc1ccccc1", "note": "[butylbenzene]", "values": [{"measurement": "viscosity", "setting": "253.15 K", "result": "2.21 ± 0.06", "unit": "mPa·s"}, {"measurement": "mass density", "setting": "253.15 K", "result": "892.6 ± 2", "unit": "kg/m3"}, {"measurement": "speed of sound", "setting": "288.15 K", "result": "1373.7 ± 1.1", "unit": "m/s"}, {"measurement": "mass density", "setting": "288.15 K", "result": "864.47 ± 0.71", "unit": "kg/m3"}, {"measurement": "viscosity", "setting": "293.15 K", "result": "1 ± 0.02", "unit": "mPa·s"}, {"measurement": "speed of sound", "setting": "293.15 K", "result": "1353.2 ± 1.1", "unit": "m/s"}, {"measurement": "mass density", "setting": "293.15 K", "result": "860.17 ± 0.71", "unit": "kg/m3"}, {"measurement": "surface tension liquid-gas", "setting": "295 K", "result": "29 ± 0.3", "unit": "mN/m"}, {"measurement": "viscosity", "setting": "303.15 K", "result": "0.88 ± 0.021", "unit": "mPa·s"}, {"measurement": "speed of sound", "setting": "303.15 K", "result": "1314.3 ± 1.1", "unit": "m/s"}, {"measurement": "mass density", "setting": "303.15 K", "result": "852.13 ± 0.71", "unit": "kg/m3"}, {"measurement": "viscosity", "setting": "313.15 K", "result": "0.775 ± 0.021", "unit": "mPa·s"}, {"measurement": "speed of sound", "setting": "313.15 K", "result": "1276.1 ± 1.1", "unit": "m/s"}, {"measurement": "mass density", "setting": "313.15 K", "result": "844.07 ± 0.71", "unit": "kg/m3"}, {"measurement": "viscosity", "setting": "323.15 K", "result": "0.687 ± 0.021", "unit": "mPa·s"}, {"measurement": "speed of sound", "setting": "323.15 K", "result": "1238.4 ± 1.1", "unit": "m/s"}, {"measurement": "mass density", "setting": "323.15 K", "result": "835.98 ± 0.71", "unit": "kg/m3"}, {"measurement": "viscosity", "setting": "333.15 K", "result": "0.615 ± 0.021", "unit": "mPa·s"}, {"measurement": "speed of sound", "setting": "333.15 K", "result": "1201.5 ± 1.1", "unit": "m/s"}, {"measurement": "mass density", "setting": "333.15 K", "result": "827.86 ± 0.71", "unit": "kg/m3"}]}
{"smiles": "CC(CC(C)(C)C)CC(C)(C)CC(C)(C)C", "note": "(stereo not given) [2,2,4,4,6,8,8-heptamethylnonane]", "values": [{"measurement": "viscosity", "setting": "253.15 K", "result": "14.09 ± 0.19", "unit": "mPa·s"}, {"measurement": "mass density", "setting": "253.15 K", "result": "811.4 ± 2", "unit": "kg/m3"}, {"measurement": "speed of sound", "setting": "288.15 K", "result": "1305.1 ± 1.2", "unit": "m/s"}, {"measurement": "mass density", "setting": "288.15 K", "result": "787.76 ± 0.71", "unit": "kg/m3"}, {"measurement": "viscosity", "setting": "293.15 K", "result": "3.75 ± 0.03", "unit": "mPa·s"}, {"measurement": "speed of sound", "setting": "293.15 K", "result": "1285.9 ± 1.2", "unit": "m/s"}, {"measurement": "mass density", "setting": "293.15 K", "result": "784.41 ± 0.71", "unit": "kg/m3"}, {"measurement": "surface tension liquid-gas", "setting": "294.7 K", "result": "24.2 ± 0.3", "unit": "mN/m"}, {"measurement": "viscosity", "setting": "303.15 K", "result": "2.97 ± 0.03", "unit": "mPa·s"}, {"measurement": "speed of sound", "setting": "303.15 K", "result": "1248.3 ± 1.2", "unit": "m/s"}, {"measurement": "mass density", "setting": "303.15 K", "result": "777.73 ± 0.72", "unit": "kg/m3"}, {"measurement": "viscosity", "setting": "313.15 K", "result": "2.4 ± 0.02", "unit": "mPa·s"}, {"measurement": "speed of sound", "setting": "313.15 K", "result": "1211.7 ± 1.2", "unit": "m/s"}, {"measurement": "mass density", "setting": "313.15 K", "result": "770.99 ± 0.72", "unit": "kg/m3"}, {"measurement": "viscosity", "setting": "323.15 K", "result": "1.97 ± 0.02", "unit": "mPa·s"}, {"measurement": "speed of sound", "setting": "323.15 K", "result": "1175.9 ± 1.2", "unit": "m/s"}, {"measurement": "mass density", "setting": "323.15 K", "result": "764.27 ± 0.72", "unit": "kg/m3"}, {"measurement": "viscosity", "setting": "333.15 K", "result": "1.65 ± 0.02", "unit": "mPa·s"}, {"measurement": "speed of sound", "setting": "333.15 K", "result": "1141.3 ± 1.2", "unit": "m/s"}, {"measurement": "mass density", "setting": "333.15 K", "result": "757.53 ± 0.72", "unit": "kg/m3"}]}
{"smiles": "CCCCCCc1ccccc1", "note": "[hexylbenzene]", "values": [{"measurement": "viscosity", "setting": "253.15 K", "result": "4.56 ± 0.07 mPa·s and 4.63 ± 0.04 mPa·s"}, {"measurement": "mass density", "setting": "253.15 K", "result": "888.9 ± 0.4 kg/m3 and 889.1 ± 2 kg/m3"}, {"measurement": "speed of sound", "setting": "288.15 K", "result": "1395.8 ± 1.6 m/s and 1395.6 ± 1.6 m/s"}, {"measurement": "mass density", "setting": "288.15 K", "result": "862.3 ± 0.4 kg/m3 and 862.4 ± 0.8 kg/m3"}, {"measurement": "viscosity", "setting": "293.15 K", "result": "1.64 ± 0.02 mPa·s and 1.66 ± 0.02 mPa·s"}, {"measurement": "speed of sound", "setting": "293.15 K", "result": "1376 ± 1.6 m/s and 1376.5 ± 1.6 m/s"}, {"measurement": "mass density", "setting": "293.15 K", "result": "858.5 ± 0.4 kg/m3 and 858.6 ± 0.8 kg/m3"}, {"measurement": "surface tension liquid-gas", "setting": "295 K", "result": "29.3 ± 0.4", "unit": "mN/m"}, {"measurement": "viscosity", "setting": "303.15 K", "result": "1.39 ± 0.02 mPa·s and 1.41 ± 0.01 mPa·s"}, {"measurement": "speed of sound", "setting": "303.15 K", "result": "1338.1 ± 1.6 m/s and 1338.7 ± 1.6 m/s"}, {"measurement": "mass density", "setting": "303.15 K", "result": "850.9 ± 0.4 kg/m3 and 851 ± 0.8 kg/m3"}, {"measurement": "viscosity", "setting": "313.15 K", "result": "1.17 ± 0.02 mPa·s and 1.19 ± 0.01 mPa·s"}, {"measurement": "speed of sound", "setting": "313.15 K", "result": "1301.1 ± 1.6 m/s and 1301.6 ± 1.6 m/s"}, {"measurement": "mass density", "setting": "313.15 K", "result": "843.3 ± 0.4 kg/m3 and 843.4 ± 0.8 kg/m3"}, {"measurement": "viscosity", "setting": "323.15 K", "result": "1.03 ± 0.02 mPa·s and 1.04 ± 0.01 mPa·s"}, {"measurement": "speed of sound", "setting": "323.15 K", "result": "1264.7 ± 1.6 m/s and 1265.3 ± 1.6 m/s"}, {"measurement": "mass density", "setting": "323.15 K", "result": "845.7 ± 0.4 kg/m3 and 835.8 ± 0.8 kg/m3"}, {"measurement": "viscosity", "setting": "333.15 K", "result": "0.9 ± 0.02", "unit": "mPa·s"}, {"measurement": "speed of sound", "setting": "333.15 K", "result": "1229.4 ± 1.6 m/s and 1229.8 ± 1.6 m/s"}, {"measurement": "mass density", "setting": "333.15 K", "result": "828.1 ± 0.4 kg/m3 and 828.2 ± 0.8 kg/m3"}]}
